# Measured values as given in US20030083336A1, “Phenylpiperazinyl derivatives” (H. Lundbeck A/S, priority 1999, published 2003).
# Structures can show the parent of a compound that is named as a salt.
# What was measured:
# [1] = biological target: T1, human cloned dopamine D3 receptors (Homo sapiens, UniProt P35462); assay: Inhibition of the binding of [3H]-Spiperone to human D3 receptors; details: [3H]Spiperone 0.3 nM; for IC50: membranes of CHO-cells, read-out: D3-bind. IC50; for inhibition at 0.05 µM: test compound at 50 nM, read-out: D3-bind. % inhibition of binding at 50 nM
# T1 construct: expressed in transfected cells; host or cells: CHO cells
# T1 sequence (P35462 whole entry): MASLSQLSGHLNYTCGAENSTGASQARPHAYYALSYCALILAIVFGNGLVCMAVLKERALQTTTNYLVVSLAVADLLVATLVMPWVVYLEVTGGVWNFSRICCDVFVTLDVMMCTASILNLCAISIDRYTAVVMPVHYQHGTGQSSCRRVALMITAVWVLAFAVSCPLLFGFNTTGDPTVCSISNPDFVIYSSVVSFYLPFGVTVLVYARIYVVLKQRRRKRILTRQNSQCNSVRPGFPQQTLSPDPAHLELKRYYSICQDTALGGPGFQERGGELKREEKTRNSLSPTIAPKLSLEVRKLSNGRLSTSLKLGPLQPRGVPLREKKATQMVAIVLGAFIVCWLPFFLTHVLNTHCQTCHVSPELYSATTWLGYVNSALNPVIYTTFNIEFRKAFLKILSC
# Procedure: Inhibition of the Binding of [^3H]-Spiperone to Human D3 Receptors
# By this method the inhibition by drugs of the binding [^3H]Spiperone (0.3 nM) to membranes of human cloned dopamine D3 receptors expressed in CHO-cells is determined in vitro. Method modified from R. G. MacKenzie et al. Eur. J. Pharm.-Mol. Pharm. Sec. 1994, 266, 79-85. The results are given in the following Table 1 as IC50-values or as percent inhibition of the binding of ^3H-Spiperone at the concentration of the test compound indicated.
# [2] = biological target: T2, human cloned dopamine D4.2 receptors (Homo sapiens, UniProt P21917, DEL265-296); assay: Inhibition of the binding of 3H-YM-09151-2 to human dopamine D4 receptors; details: [3H]YM-09151-2 0.06 nM; for IC50: membranes of CHO-cells, read-out: D4-bind. IC50; for inhibition at 0.05 µM: test compound at 50 nM, read-out: D4-bind. % inhibition of binding at 50 nM
# T2 construct: expressed in transfected cells; host or cells: CHO cells
# T2 sequence (P21917 with tags, fused parts or gaps DEL265-296): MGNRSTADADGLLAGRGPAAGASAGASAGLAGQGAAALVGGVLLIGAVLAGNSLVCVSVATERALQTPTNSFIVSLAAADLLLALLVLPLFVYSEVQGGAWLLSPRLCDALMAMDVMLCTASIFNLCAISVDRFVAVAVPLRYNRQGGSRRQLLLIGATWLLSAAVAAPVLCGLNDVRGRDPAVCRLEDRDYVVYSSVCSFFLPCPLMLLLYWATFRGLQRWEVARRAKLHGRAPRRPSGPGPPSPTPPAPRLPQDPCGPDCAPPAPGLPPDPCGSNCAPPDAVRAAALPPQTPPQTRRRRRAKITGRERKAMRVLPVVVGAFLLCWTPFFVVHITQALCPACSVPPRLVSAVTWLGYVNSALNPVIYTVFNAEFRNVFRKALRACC
# Procedure: Inhibition of the Binding of ^3H-YM-09151-2 to Human Dopamine D4 Receptors
# By this method the inhibition by drugs of the binding of [^3H]YM-09151-2 (0.06 nM) to membranes of human cloned dopamine D4.2 receptors expressed in CHO-cells is determined in vitro. Method modified from NEN Life Science Products, Inc., technical data certificate PC2533-10/96. The results are given in the following Table 1 as IC50-values or as percent inhibition of the binding of ^3H-YM-09151 -2 at the concentration of the test compound indicated.
melting point,IC50 [1],IC50 [2],inhibition at 0.05 µM [1],inhibition at 0.05 µM [2],Compound
,10 nM,5.4 nM,,,CCN(CC)c1cccc(Oc2cccc(N3CCN(CCCc4c[nH]c5ccc(F)cc45)CC3)c2C)c1 [Compound 2a]
,6.8 nM,,,98%,"COc1cc(Oc2cccc(N3CCN(CCCc4c[nH]c5ccc(F)cc45)CC3)c2C)cc(OC)c1OC [Compound 2b, 1-[2-Methyl-3-(3,4,5-trimethoxyphenoxy)phenyl]-4-[3-(5-fluoro-1H-indol-3-yl)propyl]piperazine]"
,,12 nM,70%,,"CCN(CC)c1cccc(Oc2cccc(N3CCN(CCCc4c[nH]c5c(F)cc(F)cc45)CC3)c2C)c1 [Compound 2d, 1-{3-[3-(Diethylamino)phenoxy]-2-methylphenyl}-4-[3-(5,7-difluoro-1H-indol-3-yl)propyl]piperazine]"
,,37 nM,77%,,"Cc1c(Oc2cccc(N(C)C)c2)cccc1N1CCN(CCCc2c[nH]c3ccc(F)cc23)CC1 [Compound 2h, 1-{3-[3-(Dimethylamino)phenoxy]-2-methylphenyl}-4-[3-(5-fluoro-1H-indol-3-yl)propyl]piperazine]"
,,35 nM,54%,,"Cc1c(Oc2ccc3c(c2)OCO3)cccc1N1CCN(CCCc2c[nH]c3ccccc23)CC1 [Compound 2i, 1-[3-(1,3-Benzodioxolan-5-yloxy)-2-methylphenyl]-4-[3-(1H-indol-3-yl)propyl]piperazine]"
,,40 nM,96%,,"CCN(CC)c1cccc(Oc2cccc(N3CCN(CCCCc4c[nH]c5ccc(F)cc45)CC3)c2C)c1 [Compound 2k, 1-{3-[3-(Diethylamino)phenoxy]-2-methylphenyl}-4-[4-(5-fluoro-1H-indol-3-yl)butyl]piperazine]"
,,57 nM,74%,,Cc1c(Oc2cccc(N(C)C)c2)cccc1N1CCN(CCCc2c[nH]c3ccc(Cl)cc23)CC1 [Compound 2m]
,,43 nM,61%,,"Cc1c(Oc2ccc3c(c2)OCO3)cccc1N1CCN(CCCc2c[nH]c3ccc(F)cc23)CC1 [Compound 2q, 1-[3-(1,3-Benzodioxolan-5-yloxy)-2-methylphenyl]-4-[3-(5-fluoro-1H-indol-3-yl)propyl]piperazine]"
,,62 nM,90%,,"Cc1c(Oc2cccc(N(C)C)c2)cccc1N1CCN(CCCCc2c[nH]c3c(F)cc(F)cc23)CC1 [Compound 2r, 1-{3-[3-(Dimethylamino)phenoxy]-2-methylphenyl}-4-[4-(5,7-difluoro-1H-indol-3-yl)butyl]piperazine]"
,,41 nM,36%,,"Cc1c(N2CCN(CCCc3c[nH]c4c(F)cc(F)cc34)CC2)cccc1N1CCC[C@H]1CO [Compound 2s, (S)-1-[3-(2-Hydroxymethylpyrrolidin-1-yl)-2-methylphenyl]-4-[3-(5,7-difluoro-1H-indol-3-yl)propyl]piperazine]"
,,47 nM,54%,,"Cc1c(Oc2ccc3c(c2)OCO3)cccc1N1CCN(CCCc2c[nH]c3c(F)cc(F)cc23)CC1 [Compound 2t, 1-[3-(1,3-Benzodioxolan-5-yloxy)-2-methylphenyl]-4-[3-(5,7-difluoro-1H-indol-3-yl)propyl]piperazine]"
,,34 nM,43%,,"Cc1c(N2CCN(CCCc3c[nH]c4c(F)cc(F)cc34)CC2)cccc1N1CC(C)OC(C)C1 (stereo not drawn) [Compound 2w, 1-[3-(2,6-Dimethylmorpholin-4-yl)-2-methylphenyl]-4-[3-(5,7-difluoro-1H-indol-3-yl)propyl]piperazine]"
,,76 nM,66%,,"CCN(CC)c1cccc(Oc2cccc(N3CCCN(CCCc4c[nH]c5c(F)cc(F)cc45)CC3)c2C)c1 [Compound 2x, 1-{3-[3-(Diethylamino)phenoxy]-2-methylphenyl}-4-[3-(5,7-difluoro-1H-indol-3-yl)propyl]-1,4-diazepane]"
,,32 nM,59%,,"Cc1c(Oc2cccc(N(C)C)c2)cccc1N1CCN(CCCc2c[nH]c3c(F)cc(F)cc23)CC1 [Compound 2z, 1-{3-[3-(Dimethylamino)phenoxy]-2-methylphenyl}-4-[3-(5,7-difluoro-1H-indol-3-yl)propyl]piperazine]"

# Continued, molecule first:
Compound,melting point,IC50 [1],IC50 [2],inhibition at 0.05 µM [1],inhibition at 0.05 µM [2]
"Cc1c(N2CCOCC2)cccc1N1CCN(CCCc2c[nH]c3ccc(F)cc23)CC1 (as salt: HCl) [Compound 1d, 1-[2-methyl-3-(morpholin-4-yl)phenyl]-4-[3-(5-fluoro-1H-indol-3-yl)propyl]piperazine]",212 to 215 °C,,,,
"Cc1c(N2CCOCC2)cccc1N1CCN(CCCc2c[nH]c3ccccc23)CC1 (hydrate or solvate) [Compound 1b, 1-[3-(1H-Indol-3-yl)propyl]-4-[2-methyl-3-(morpholin-4-yl)-phenyl]piperazine]",112 to 113 °C,,,,
Cc1c(Oc2cccc(N(C)C)c2)cccc1N1CCN(CCCc2c[nH]c3ccccc23)CC1 [Compound 1a],,26 nM,48 nM,,
"Cc1c(N2CCOCC2)cccc1N1CCN(CCCc2c[nH]c3ccccc23)CC1 [Compound 1b, 1-[3-(1H-Indol-3-yl)propyl]-4-[2-methyl-3-(morpholin-4-yl)-phenyl]piperazine]",,220 nM,5.9 nM,,
"Cc1c(N2CCOCC2)cccc1N1CCCN(CCCc2c[nH]c3ccc(F)cc23)CC1 [Compound 2aa, 1-[3-(Morpholin-4-yl)-2-methylphenyl]-4-[3-(5-fluoro-1H-indol-3-yl)propyl]-1,4-diazepane]",,,,40%,53%
"CCN(CC)c1cccc(Oc2cccc(N3CCN(CCCCc4c[nH]c5ccc(Cl)cc45)CC3)c2C)c1 [Compound 2ab, 1-{3-[3-(Diethylamino)phenoxy]-2-methylphenyl}-4-[4-(5-chloro-1H-indol-3-yl)butyl]piperazine]",,,,83%,53%
"CCN(CC)c1cccc(Oc2cccc(N3CCN(CCCc4c[nH]c5ccc(Cl)cc45)CC3)c2C)c1 [Compound 2c, 1-{3-[3-(Diethylamino)phenox]-2-methylphenyl}-4-[3-(5-chloro-1H-indol-3-yl)propyl]piperazine]",,13 nM,5.5 nM,,
"COc1cc(Oc2cccc(N3CCN(CCCc4c[nH]c5ccc(Cl)cc45)CC3)c2C)cc(OC)c1OC [Compound 2e, 1-[2-Methyl-3-(3,4,5-trimethoxyphenoxy)phenyl}-4-[3-(5-chloro-1H-indol-3-yl)propyl]piperazine]",,,10 nM,71%,
"CCN(CC)c1cccc(Oc2cccc(N3CCN(CCCc4c[nH]c5ccccc45)CC3)c2C)c1 [Compound 2f, 1-{3-[3-(Diethylamino)phenoxy]-2-methylphenyl}-4-[3-(1H-indol-3-yl)propyl]piperazine]",,,35 nM,70%,
"Cc1c(N2CCCN(CCCc3c[nH]c4ccc(F)cc34)CC2)cccc1N1CC(C)OC(C)C1 (stereo not drawn) [Compound 2g, 1-[3-(2,6-Dimethylmorpholin-4-yl)-2-methylphenyl]-4-[3-(5-fluoro-1H-indol-3-yl)propyl]-1,4-diazepan]",,,26 nM,65%,
"Cc1c(N2CCN(CCCc3c[nH]c4ccc(F)cc34)CC2)cccc1N1CC(C)OC(C)C1 (stereo not drawn) [Compound 2j, 1-[3-(2,6-Dimethylmorpholin-4-yl)-2-methylphenyl]-4-[3-(5-fluoro-1H-indol-3-yl)propyl]piperazine]",,,36 nM,57%,
"Cc1c(N2CCOCC2)cccc1N1CCN(CCCc2c[nH]c3ccc(Cl)cc23)CC1 [Compound 2l, 1-[3-(Morpholin-4-yl)-2-methylphenyl]-4-[3-(5-chloro-1H-indol-3-yl)propyl]piperazine]",,,30 nM,40%,
"Cc1c(N2CCN(CCCc3c[nH]c4ccccc34)CC2)cccc1N1CCC[C@H]1CO [Compound 2o, (S)-1-[3-(2-Hydroxymethylpyrrolidin-1-yl)-2-methylphenyl]-4-[3-(1H-indol-3-yl)propyl]piperazine]",,,52 nM,19%,
"Cc1c(N2CCN(CCCc3c[nH]c4ccc(F)cc34)CC2)cccc1N1CCC[C@H]1CO [Compound 2p, (S)-1-[3-(2-Hydroxymethylpyrrolidin-1-yl)-2-methylphenyl]-4-[3-(5-fluoro-1H-indol-3-yl)propyl]piperazine]",,,,54%,67%
